In patent US5750555A, “Bis-indolyl maleinimide or indolopyrrolo carbazole containing an amino acid as PKC inhibitors” (Goedecke Aktiengesellschaft, priority 1992, dated 1998):
Like-named read-outs stand apart in the source and are kept apart here. Where a SMILES comes first, the peptide text is derived from it. The star is where a group is joined. X1 = Cn1cc(C2=C(c3cn(CCC(=O)*)c4ccccc34)C(=O)NC2=O)c2ccccc21

Columns and labels:
protein kinase C (PKC) = test: Enzyme test PKC with peptide substrate [Ser^25] PKC (19-31), phosphorus^32 phosphate incorporation; assay type: biochemical, rat
Procedure: The enzyme protein kinase C (PKC) is purified from rat brain. Its activity is determined by way of the incorporation of phosphorus ^32 -labelled phosphate into a synthetic peptide which is derived from the PKC "pseudosubstrate" sequence (arnino acids 19 to 31 of the PKC sequence with alanine in position 25 substituted by serine). A reaction batch of 200 μL contains the following components: 50 mM Tris HCl, pH 7.5, 5 mM MgCl2, 1 mM DTT, 4 μM free Ca^2+, 10 μM ATP, 1 μg phosphatidylserine, 0.2 μg 1,2-diolein, as well as 0.3 μg peptide substrate. The batch is preincubated for 4 minutes at 30° C. and the reaction then started by the addition of 5 nm PKC. After incubation for 5 minutes at 30° C., the reaction is stopped with 0.73% H3 PO4, and the sample then filtered over a nitrocellulose filter (0.1 μm pore size). The phosphate incorporation is determined by means of Cerenkov counting in a scintillation counter. […]

[1] = biological target: Myosin Light Chain Kinase; test: Inhibition of myosin light chain kinase (selectivity test); assay type: biochemical; settings: Table 2; for IC50: Myosin Light Chain Kinase, read-out: Inhibition of the Protein Kinases IC50: MLC Kinase; for Ratio of IC50 MLC Kinase/IC50 C Kinase: selectivity ratio MLC Kinase over PKC
Procedure: The selectivity of these compounds with regard to other kinases, such as myosin light chain kinase, was tested on the basis of some examples. These values are set out in the following Table 2.

[2] = Table 1, PKC purified from rat brain, 10 μM ATP, pH 7.5, 30° C., 5 minutes, read-out: Inhibition IC50, Enzyme Test PKC With Peptide Substrate [Ser^25] PKC (19-31)
[3] = Table 2, PKC with peptide substrate [Ser^25] PKC (19-31), read-out: Inhibition of the Protein Kinases IC50: PKC

Row | Molecule | IC50 (protein kinase C (PKC); [2]) [nM] | IC50 (protein kinase C (PKC); [3]) [nM] | IC50 [1] [nM] | Ratio of IC50 MLC Kinase/IC50 C Kinase [1]
1 | C[C@H](NC(=O)CCn1cc(C2=C(c3cn(C)c4ccccc34)C(=O)NC2=O)c2ccccc21)C(=O)O [Example 5, 3-[3-[4-(1-Methylindol-3-yl)-1H-pyrrole-2,5-dion-3-yl]-indol-1-yl)-propionyl-L-alanine] | 580 | – | – | –
2 | C[C@H](NC(=O)CNC(=O)[C@H](CO)NC(=O)CCn1cc(C2=C(c3cn(C)c4ccccc34)C(=O)NC2=O)c2ccccc21)C(N)=O [Example 7d, 3-[3-[4-(1-methylindol-3-yl)-1H-pyrrole-2,5-dion-3-yl)-indol-1-yl)-propionyl-L-serylglycyl-L-alaninamide] | > 1000 | – | – | –
3 | C[C@H](N)C(=O)NCCCCCCCCn1cc(C2=C(c3cn(C)c4ccccc34)C(=O)NC2=O)c2ccccc21 [Example 2f, 2-[(1-Methyl)-1H-indol-3-yl]-3-[1-(9-L-alanylaminooctyl)-1H-indol-3-yl)-maleinimide] | 330 | – | – | –
4 | C[C@H](N)C(=O)NCCCCCCCCCn1cc(C2=C(c3cn(C)c4ccccc34)C(=O)NC2=O)c2ccccc21 [Example 2d, 2-[(l-Methyl)-1H-indol-3-yl]-3-[1-(9-L-alanylaminononyl)-1H-indol-3-yl)-maleinimide] | > 1000 | – | – | –
5 | Cn1cc(C2=C(c3cn(CCC(=O)NCC(=O)NCC(=O)N[C@@H](CO)C(N)=O)c4ccccc34)C(=O)NC2=O)c2ccccc21 [Example 7c, 3-[3-[4-(1-methylindol-3-yl)-1H-pyrrole-3,5-dion-3-yl]-indol-1-yl]-propionylglycylglycyl-L-serylamide] | 200 | – | – | –
6 | C[C@H](NC(=O)CNC(=O)CNC(=O)CCn1cc(C2=C(c3cn(C)c4ccccc34)C(=O)NC2=O)c2ccccc21)C(N)=O [Example 7b, 3-[3-[4-(1-methylindol-3-yl)-1H-pyrrole-2,5-dion-3-yl]-indol-1-yl)-propionylglycylglycyl-L-alaninamide] | > 100 | – | – | –
7 | C[C@H](NC(=O)CCn1cc(C2=C(c3cn(C)c4ccccc34)C(=O)NC2=O)c2ccccc21)C(=O)NCC(=O)N[C@@H](CCCCN)C(N)=O [Example 7, 3-[3-[4-(1-Methylindol-3-yl)-1H-pyrrole-2,5-dion-3-yl]-indol-1-yl)-propionyl-L-alanylglycyl-L-lysinamide] | 230 | – | – | –
8 | Cn1cc(C2=C(c3cn(CCCCNC(=O)[C@@H](N)CCCNC(=N)N)c4ccccc34)C(=O)NC2=O)c2ccccc21 [Example 2b, 2-[(1-Methyl)-1H-indol-3-yl]-3-[1-(4-L-arginylaminobutyl)-1H-indol-3-yl]-maleinimide] | 220 | – | – | –
9 | Cn1cc(C2=C(c3cn(CCCCCCCCCNC(=O)[C@@H](N)CO)c4ccccc34)C(=O)NC2=O)c2ccccc21 [Example 2e, 2-[(1-Methyl)-1H-indol-3-yl]-3-[1-(9-L-serylaminononyl)-1H-indol-3-yl]-maleinimide] | > 1000 | – | – | –
10 | Cn1cc(C2=C(c3cn(CCCN)c4ccccc34)C(=O)NC2=O)c2ccccc21 [A, 3[1(3-aminopropyl)-3-indolyl)-4-(1-methyl-3-indolyl)-1H-pyrrole-2,5-dione, reference compound] | – | 130 | 1300 | 10
11 | C[C@H](N)C(=O)NCCCCCn1cc(C2=C(c3cn(C)c4ccccc34)C(=O)NC2=O)c2ccccc21 [Example 2c, 2-[(1-Methyl)-1H-indol-3-yl]-3-[1-(5-L-alanylaminopentyl)-1H-indol-3-yl]-maleinimide] | > 100 | – | – | –
12 | C[C@H](NC(=O)[C@H](Cc1ccccc1)NC(=O)[C@H](CCCNC(=N)N)NC(=O)[C@H](CC(N)=O)NC(=O)[C@H](CCCCN)NC(=O)CCn1cc(C2=C(c3cn(C)c4ccccc34)C(=O)NC2=O)c2ccccc21)C(N)=O [Example 7a, 3-[3-[4-(1-methylindol-3-yl)-1H-pyrrole-2,5-dion-3-yl]-indol-1-yl)-propionyl-L-lysyl-L-asparaginyl-L-arginyl-L-phenylalanyl-L-alaninamide] (X1-KNRFA-NH2) | > 100 | – | – | –
13 | Cn1cc(C2=C(c3cn(CCCNC(=O)CCCCNC(=O)[C@@H](N)CO)c4ccccc34)C(=O)NC2=O)c2ccccc21 [Example 3, 2-[(1-Methyl)-1H-indol-3-yl]-3-[1-[3-(5-L-serylaminopentanoyl)-aminopropyl)-1H-indol-3-yl)-maleinimide] | 61 | – | – | –
14 | 12-[2-(L-Alanyl-L-arginyl)-aminopropyl]-6,7,12,13-tetrahydro-13-methyl-5,7- dioxo-5H-indolo[2,3-a]pyrrolo-[3,4-c]carbazole [Example 9] | 190 | – | – | –

Further molecules by falling IC50 (protein kinase C (PKC); [2]), results first:

Row | IC50 (protein kinase C (PKC); [2]) [nM] | IC50 (protein kinase C (PKC); [3]) [nM] | IC50 [1] [nM] | Ratio of IC50 MLC Kinase/IC50 C Kinase [1] | Molecule
15 | 53 | – | – | – | C[C@H](N)C(=O)NCCCCCn1c2ccccc2c2c3c(c4c5ccccc5n(C)c4c21)C(=O)NC3=O [Example 10a, 12-[2-(5-L-alanyl)-aminopentyl]-6,7,12,13-tetrahydro-13-methyl-5,7-dioxo-5H-indolo[2,3-a]pyrrolo-[3,4-c]carbazole]
16 | 38 | – | – | – | C[C@H](N)C(=O)NCCCn1c2ccccc2c2c3c(c4c5ccccc5n(C)c4c21)C(=O)NC3=O [Example 8, 12-[2-(3-L-Alanyl)-aminopropyl)-6,7,12,13-tetrahydro-13-methyl-5,7-dioxo-5H-indolo[2,3-a]pyrrolo[3,4-c]-carbazole]
17 | 36 | – | – | – | C[C@H](N)C(=O)NCC(=O)NCCCn1cc(C2=C(c3cn(C)c4ccccc34)C(=O)NC2=O)c2ccccc21 [Example 4, 2-[(1-Methyl)-1H-indol-3-yl)-3-[1-[3-(L-alanylglycyl)-aminopropyl]-1H-indol-3-yl]]
18 | 28 | – | – | – | C[C@@H](N)C(=O)NCCCn1cc(C2=C(c3cn(C)c4ccccc34)C(=O)NC2=O)c2ccccc21 [Example 2, 2-[(1-Methyl)-1H-indol-3-yl)-3-[1-(3-D-alanylaminopropyl)-1H-indol-3-yl]-maleinimide]
19 | 25 | – | – | – | C[C@H](N)C(=O)NCCCCn1cc(C2=C(c3cn(C)c4ccccc34)C(=O)NC2=O)c2ccccc21 [Example 2a, 2-[(1-Methyl)-1H-indol-3-yl]-3-[1-(4-L-alanylaminobutylyl)-1H-indol-3-yl)-maleinimide]
20 | 23 | 23 | 2400 | 104 | Cn1cc(C2=C(c3cn(CCCNC(=O)CCN)c4ccccc34)C(=O)NC2=O)c2ccccc21 [Example 1b, 2-[(1-Methyl)-1H-indol-3-yl]-3-[1-(3-β-alanylaminopropyl)-1H-indol-3-yl]-maleinimide]
21 | 18 | – | – | – | C[C@H](N)C(=O)NCCC(=O)NCCCn1cc(C2=C(c3cn(C)c4ccccc34)C(=O)NC2=O)c2ccccc21 [Example 4a, 2-[(1-Methyl)-1H-indol-3-yl]-3-[1-[3-(L-alanyl-β-alanyl)-aminopropyl]-1H-indol-3-yl)-maleinimide]
22 | 14 | 14 | 4600 | 328 | Cn1cc(C2=C(c3cn(CCCNC(=O)[C@@H](N)CO)c4ccccc34)C(=O)NC2=O)c2ccccc21 [Example 1, 2-[(1-Methyl)-1H-indol-3-yl]-3-(1-(3-L-serylaminopropyl)-1H-indol-3-yl)-maleinimide]
23 | 9.6 | – | – | – | C[C@H](N)C(=O)NCCCCn1c2ccccc2c2c3c(c4c5ccccc5n(C)c4c21)C(=O)NC3=O [Example 10, 12-[2-(4-L-Alanyl)-aminobutyl]-6,7,12,13-tetrahydro-13-methyl-5,7-dioxo-5H-indolo[2,3-a]pyrrolo[3,4-c]-carbazole]
24 | 6.3 | 6.3 | 1900 | 302 | 2-[(1-Methyl)-1H-indol-3-yl]-3-[1-(3-β-alanylamino-propyl)-1H-indol-3-yl]-maleinimide [Example 1a]
